# Measured values from paper doi:10.1101/2020.06.06.138008v1 (biorxiv, 2020).
# Biological target: MlaFEDB (Escherichia coli, UniProt P63386)
# Conditions: pH 8.0, 5 mM MgCl2, 150 mM NaCl, 0.5 mM DDM micelles; Hill n = 1.81 ± 0.35
# Chain of MlaFEDB (P63386 whole entry): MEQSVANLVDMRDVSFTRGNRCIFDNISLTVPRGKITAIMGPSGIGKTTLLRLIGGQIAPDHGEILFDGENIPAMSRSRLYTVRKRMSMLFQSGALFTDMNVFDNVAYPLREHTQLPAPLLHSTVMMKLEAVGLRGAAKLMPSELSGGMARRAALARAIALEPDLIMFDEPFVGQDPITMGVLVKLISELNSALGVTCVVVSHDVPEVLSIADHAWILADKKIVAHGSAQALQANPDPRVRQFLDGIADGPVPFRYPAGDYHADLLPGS
# Chain of MlaFEDB (P64606 whole entry partner): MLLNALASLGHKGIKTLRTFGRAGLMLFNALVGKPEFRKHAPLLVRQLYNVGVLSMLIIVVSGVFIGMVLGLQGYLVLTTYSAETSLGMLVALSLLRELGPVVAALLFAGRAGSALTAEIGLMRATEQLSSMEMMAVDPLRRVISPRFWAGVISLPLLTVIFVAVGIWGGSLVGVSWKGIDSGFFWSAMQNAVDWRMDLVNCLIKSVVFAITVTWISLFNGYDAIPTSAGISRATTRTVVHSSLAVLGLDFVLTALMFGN
# Chain of MlaFEDB (P64604 whole entry partner): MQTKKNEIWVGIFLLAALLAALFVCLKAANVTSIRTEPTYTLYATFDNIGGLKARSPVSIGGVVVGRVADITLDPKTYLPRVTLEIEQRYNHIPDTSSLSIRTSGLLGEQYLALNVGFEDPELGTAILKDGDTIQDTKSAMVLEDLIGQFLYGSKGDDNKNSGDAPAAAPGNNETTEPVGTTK
# Chain of MlaFEDB (P64602 whole entry partner): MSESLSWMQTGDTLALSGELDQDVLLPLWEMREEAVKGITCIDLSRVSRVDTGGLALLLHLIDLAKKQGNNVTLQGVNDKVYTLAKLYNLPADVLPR
structure (smiles),measurement,value
Nc1ncnc2c1ncn2[C@@H]1O[C@H](COP(=O)(O)OP(=O)(O)OP(=O)(O)O)[C@@H](O)[C@H]1O [ATP],Km,200 ± 44.6 µM
